From PubChem BioAssay (NCI) come the findings set out here.

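Assay format: 96-well plates, 48-hour exposure. The concentration for 50% growth inhibition is given as GI50. TGI: concentration producing complete growth inhibition.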

Usually TGI stands for the concentration at which net growth stops. A lower TGI goes with more potent growth arrest. One may read the GI50 as the concentration that inhibits growth by half.

The test system of one test is OVCAR-8 ovarian. Put plainly: DTP human tumour cell line panel, 48 h.
Turning to `CCCCCCCCCCCC(=O)CC(=O)c1c(O)cccc1O`, the TGI is 30.6 µM.
As for `Cc1cc2c(cc1C)[n+](=O)c(C(=O)CC(=O)C(=O)Nc1c(C(C)C)cccc1C(C)C)c(C)n2[O-]`, the TGI is greater than 100 µM.
As for `COc1ccc2cc1Oc1ccc(cc1)CC1c3cc(c(OC)cc3CCN1C)Oc1c3c(cc4c1C(C2)N(C)CC4)OCO3` (stereo not drawn), the TGI was determined as 21.1 µM.
`O=C1CNCCCN2CCN(CCCNCC(=O)Nc3ccc(cc3)S(=O)(=O)c3ccc(cc3)NC(=O)CNCCCN3CCN(CCCNCC(=O)Nc4ccc(cc4)S(=O)(=O)c4ccc(cc4)N1)CC3)CC2` showed a TGI greater than 56.9 µM.
As to `N#Cc1ccc(C#Cc2ccccc2C#CCCCCO)cc1`, the GI50 is 18.6 µM and the TGI was determined as 35.5 µM.
Take `O=NN(Cc1ccc(Cl)cc1)C(C(=O)O)c1ccccc1` (stereo not drawn): the TGI is greater than 100 µM.

The next test concerns SF-539 CNS. Nature of the test: DTP human tumour cell line panel, 48 h.
Compound `CC1(Cl)C(=O)NC(=O)N(C2CC(N=[N+]=[N-])C(CO)O2)C1N=[N+]=[N-]` (stereo not drawn) yielded a total growth inhibition concentration (TGI) greater than 100 µM.
`COc1ccc2ccc3c(c2c1)CN1CCc2cc(OC)c(OC)cc2C1C3` (stereo not drawn) had a TGI greater than 100 µM.
As to `OCCC1(O)CCC(O)CC1` (stereo not drawn), the TGI is greater than 100 µM.
`CCCCNC1=C(C(=O)OCC)C(=O)CO1` gave a TGI greater than 100 µM.
As to `CC(C)CC(=O)[O-].CC(C)CC(=O)[O-].N.N.N.N.[Co+3].[O-][Cl+3]([O-])([O-])[O-]`, the GI50 is greater than 100 µM and the TGI was greater than 100 µM.
As for `COc1cc(C2c3cc4c(cc3C(NCC(O)CO)C3COC(=O)[C@H]23)OCO4)cc(OC)c1OC` (stereo partly drawn), the concentration for total growth inhibition (TGI) was 0.344 µM.
In the case of `COC(=O)CC(=O)C[P+](c1ccccc1)(c1ccccc1)c1ccccc1`, the TGI is greater than 218 µM.
For the compound `CCCCN(CCCC)C(=O)C(=O)C(C#N)c1ccc(C)cc1` (stereo not drawn), the TGI is greater than 100 µM.
Same read-out and setting: to `Cc1ccc(S(=O)(=O)C(CC(=O)N2CCCC2)C(=O)c2ccccc2)cc1` (stereo not drawn) belongs greater than 100 µM; to `CC1(C)CC(/C=C2/OC(=O)c3ccccc32)=C(C#N)C(=O)O1`, greater than 100 µM; to `Cc1nc2c(nc1Cl)nc(Oc1ccc(Cl)cc1)c1ccccc12`, greater than 100 µM.
Compound `CC(=O)Nc1ccccc1Sc1ccccc1` returned a concentration for total growth inhibition (TGI) greater than 100 µM.
Turning to `CC1OC(n2cc(F)c(=O)[nH]c2=O)CCC1O` (stereo not drawn), the TGI was determined as 84.4 µM.
Compound `COC(=O)C[C@H]1CCC2(OCCO2)[C@]1(C)C(=O)OC` had a TGI greater than 100 µM.
`CCCCCCCCCC[C@@H](O)[C@@H]1CC[C@H]([C@H]2CC[C@@H]([C@@H](O)CCCCCCCCCC[C@H]3CC(CC(C)=O)C(=O)O3)O2)O1` (stereo partly drawn) had a TGI of 22.7 µM.
Consider `CCOc1ccc2c(c1)[n+]([O-])c(S(=O)(=O)c1ccc(C)cc1)c(N)[n+]2[O-]`, for which the total growth inhibition concentration (TGI) was greater than 100 µM.
`CC12CC[C@@H](C(C)(C)O)C1[C@@H](O)CC1(C)C2CCC2[C@@]3(C)CC[C@H](O)C(C)(C)C3C(O)C[C@]21C` (stereo partly drawn) displayed a TGI of 35.3 µM.
Consider `CCOC(=O)NC(=O)c1cn(C2OC(COC(=O)CCCCCCCCC(=O)OCC3OC(n4cc(C(=O)NC(=O)OCC)c(=O)[nH]c4=O)C(O)C3O)C(O)C2O)c(=O)[nH]c1=O` (stereo not drawn), for which the total growth inhibition concentration (TGI) is greater than 100 µM.
Turning to `Cc1ccc(C)c(NC(=O)CC/C(=N\NC(=O)C(=O)NN)C(C)C(=O)c2ccc(O)cc2)c1` (stereo not drawn), the TGI was greater than 100 µM.
For `N=C1CSC2=NC3=C(CCC/C3=C\c3ccccc3)C(c3ccccc3)N12` (stereo not drawn), the TGI was determined as 20 µM.
`COc1ccccc1C1C(C(=O)Nc2ccccc2)=C(C)NC(C)=C1C(=O)Nc1ccccc1` came in with a TGI greater than 100 µM.
For the compound `CCCCCCCCCCCC(=O)CC(=O)c1c(O)cccc1O`, the TGI is 35.5 µM.
Consider `Cc1cc2c(cc1C)[n+](=O)c(C(=O)CC(=O)C(=O)Nc1c(C(C)C)cccc1C(C)C)c(C)n2[O-]`, for which the TGI was greater than 100 µM.
Consider `COc1ccc2cc1Oc1ccc(cc1)CC1c3cc(c(OC)cc3CCN1C)Oc1c3c(cc4c1C(C2)N(C)CC4)OCO3` (stereo not drawn), for which the TGI was 6.03 µM.
Consider `O=C1CNCCCN2CCN(CCCNCC(=O)Nc3ccc(cc3)S(=O)(=O)c3ccc(cc3)NC(=O)CNCCCN3CCN(CCCNCC(=O)Nc4ccc(cc4)S(=O)(=O)c4ccc(cc4)N1)CC3)CC2`, for which the TGI was determined as 44.6 µM.
For `N#Cc1ccc(C#Cc2ccccc2C#CCCCCO)cc1`, the GI50 is 17.5 µM and the TGI is 32 µM.
In turn, `O=NN(Cc1ccc(Cl)cc1)C(C(=O)O)c1ccccc1` (stereo not drawn) registered a TGI greater than 100 µM.

The next test concerns TK-10 renal. Put plainly: DTP human tumour cell line panel, 48 h.
The compound `CC1(Cl)C(=O)NC(=O)N(C2CC(N=[N+]=[N-])C(CO)O2)C1N=[N+]=[N-]` (stereo not drawn) yielded a TGI greater than 100 µM.
Same read-out and setting: then `COc1ccc2ccc3c(c2c1)CN1CCc2cc(OC)c(OC)cc2C1C3` (stereo not drawn), with greater than 100 µM; and `OCCC1(O)CCC(O)CC1` (stereo not drawn), with greater than 100 µM; and `CCCCNC1=C(C(=O)OCC)C(=O)CO1`, with greater than 100 µM.
As to `CC(C)CC(=O)[O-].CC(C)CC(=O)[O-].N.N.N.N.[Co+3].[O-][Cl+3]([O-])([O-])[O-]`, the GI50 was greater than 100 µM and the TGI was greater than 100 µM.
In turn, `COc1cc(C2c3cc4c(cc3C(NCC(O)CO)C3COC(=O)[C@H]23)OCO4)cc(OC)c1OC` (stereo partly drawn) gave a TGI greater than 100 µM.
Regarding `COC(=O)CC(=O)C[P+](c1ccccc1)(c1ccccc1)c1ccccc1`, the TGI was greater than 218 µM.
In turn, `CCCCN(CCCC)C(=O)C(=O)C(C#N)c1ccc(C)cc1` (stereo not drawn) had a TGI greater than 100 µM.
Same read-out and setting: to `Cc1ccc(S(=O)(=O)C(CC(=O)N2CCCC2)C(=O)c2ccccc2)cc1` (stereo not drawn) belongs greater than 100 µM; to `CC(=O)Nc1ccccc1Sc1ccccc1`, greater than 100 µM.
In turn, `CC1OC(n2cc(F)c(=O)[nH]c2=O)CCC1O` (stereo not drawn) gave a TGI greater than 100 µM.
`COC(=O)C[C@H]1CCC2(OCCO2)[C@]1(C)C(=O)OC` yielded a concentration for total growth inhibition (TGI) greater than 100 µM.
For the compound `CCCCCCCCCC[C@@H](O)[C@@H]1CC[C@H]([C@H]2CC[C@@H]([C@@H](O)CCCCCCCCCC[C@H]3CC(CC(C)=O)C(=O)O3)O2)O1` (stereo partly drawn), the TGI came out at 32.8 µM.
For `CCOc1ccc2c(c1)[n+]([O-])c(S(=O)(=O)c1ccc(C)cc1)c(N)[n+]2[O-]`, the concentration for total growth inhibition (TGI) is greater than 100 µM.
For the compound `CC12CC[C@@H](C(C)(C)O)C1[C@@H](O)CC1(C)C2CCC2[C@@]3(C)CC[C@H](O)C(C)(C)C3C(O)C[C@]21C` (stereo partly drawn), the TGI amounted to 35.6 µM.
In turn, `CCOC(=O)NC(=O)c1cn(C2OC(COC(=O)CCCCCCCCC(=O)OCC3OC(n4cc(C(=O)NC(=O)OCC)c(=O)[nH]c4=O)C(O)C3O)C(O)C2O)c(=O)[nH]c1=O` (stereo not drawn) displayed a total growth inhibition concentration (TGI) greater than 100 µM.
Compound `Cc1ccc(C)c(NC(=O)CC/C(=N\NC(=O)C(=O)NN)C(C)C(=O)c2ccc(O)cc2)c1` (stereo not drawn) showed a TGI greater than 100 µM.
Compound `N=C1CSC2=NC3=C(CCC/C3=C\c3ccccc3)C(c3ccccc3)N12` (stereo not drawn) had a TGI of 18.1 µM.
Compound `COc1ccccc1C1C(C(=O)Nc2ccccc2)=C(C)NC(C)=C1C(=O)Nc1ccccc1` returned a TGI greater than 100 µM.
As to `CCCCCCCCCCCC(=O)CC(=O)c1c(O)cccc1O`, the TGI stood at 57.5 µM.
Turning to `Cc1cc2c(cc1C)[n+](=O)c(C(=O)CC(=O)C(=O)Nc1c(C(C)C)cccc1C(C)C)c(C)n2[O-]`, the TGI is greater than 100 µM.
Still for that read-out and setting: to `COc1ccc2cc1Oc1ccc(cc1)CC1c3cc(c(OC)cc3CCN1C)Oc1c3c(cc4c1C(C2)N(C)CC4)OCO3` (stereo not drawn) belongs 5.66 µM; to `O=C1CNCCCN2CCN(CCCNCC(=O)Nc3ccc(cc3)S(=O)(=O)c3ccc(cc3)NC(=O)CNCCCN3CCN(CCCNCC(=O)Nc4ccc(cc4)S(=O)(=O)c4ccc(cc4)N1)CC3)CC2`, 56.5 µM.
For the compound `N#Cc1ccc(C#Cc2ccccc2C#CCCCCO)cc1`, the GI50 is 16.5 µM and the TGI came to 33.5 µM.
`O=NN(Cc1ccc(Cl)cc1)C(C(=O)O)c1ccccc1` (stereo not drawn) came in with a total growth inhibition concentration (TGI) greater than 100 µM.
